How the values were obtained:
[1] = test system: CL-11 (Colorectal Carcinoma); assay: Bliss excess, mean over the matrix (fraction); higher = more synergy
Method in brief: (§1)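 After 24 hours at 37°C and 5% CO2 in 1536-well plates, cells in DMEM/F12 or RPMI plus 10% FBS received two-drug dose matrices for 72 hours. Viability came from CellTiter-Glo 2.0 luminescence and was scaled as inhibition, anchored at 0 by vehicle wells and at 1 by blank wells. Combination Emax is taken as the second-highest inhibition in the matrix, and Bliss excess as the observed combination effect less EA + EB − EA·EB, with EA and EB the single-agent effects.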

KALS-1 (Glioblastoma) = assay: as above
Method in brief: as §1

[2] = test system: LCLC-103H (Non-Small Cell Lung Carcinoma); assay: as above
Method in brief: as §1

[3] = test system: MOLT-13 (T-Lymphoblastic Leukemia); assay: as above
Method in brief: as §1

[4] = test system: MS-1 (Small Cell Lung Carcinoma); assay: as above
Method in brief: as §1

[5] = test system: NCI-H1341 (Small Cell Lung Carcinoma); assay: as above
Method in brief: as §1

[6] = test system: NCI-H1963 (Small Cell Lung Carcinoma); assay: as above
Method in brief: as §1

[7] = test system: NCI-H3118 (Head and Neck Carcinoma); assay: as above
Method in brief: as §1

[8] = test system: NCI-H596 (Other Solid Carcinomas); assay: as above
Method in brief: as §1

[9] = test system: NMC-G1 (Low Grade Glioma); assay: as above
Method in brief: as §1

[10] = test system: RCC-JW (Kidney Carcinoma); assay: as above
Method in brief: as §1

[11] = test system: SAT (Head and Neck Carcinoma); assay: as above
Method in brief: as §1

[12] = test system: SKG-IIIa (Cervical Carcinoma); assay: as above
Method in brief: as §1

[13] = test system: SNU-407 (Colorectal Carcinoma); assay: as above
Method in brief: as §1

[14] = test system: SNU-C2B (Colorectal Carcinoma); assay: as above
Method in brief: as §1

[15] = test system: TUR (Acute Myeloid Leukemia); assay: as above
Method in brief: as §1

UACC-257 (Melanoma) = assay: as above
Method in brief: as §1

[16] = test system: MOLP-8 (Plasma Cell Myeloma); assay: combination Emax (second highest fraction inhibited in the dose matrix, 72 h); higher = more inhibition; extreme values may be limits of the assay
Method in brief: as §1

[17] = test system: NMC-G1 (Low Grade Glioma); assay: as above
Method in brief: as §1

[18] = test system: P30-OHK (B-Lymphoblastic Leukemia); assay: as above
Method in brief: as §1
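Wherever Bliss excess, mean over the matrix is given: after 72 h of two-drug dosing.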

SMILES	Bliss excess [1]	Bliss excess (KALS-1 (Glioblastoma))	Bliss excess [2]	Bliss excess [3]	Bliss excess [4]	Bliss excess [5]	Bliss excess [6]	Bliss excess [7]	Bliss excess [8]	Bliss excess [9]	Bliss excess [10]	Bliss excess [11]	Bliss excess [12]	Bliss excess [13]	Bliss excess [14]	Bliss excess [15]	Bliss excess (UACC-257 (Melanoma))	combination Emax [16]	combination Emax [17]	combination Emax [18]
CC(=O)Nc1cccc(-n2c(=O)n(C3CC3)c(=O)c3c(Nc4ccc(I)cc4F)n(C)c(=O)c(C)c32)c1 [Trametinib] + Cc1nc(-c2cn3c(n2)-c2ccc(-c4cnn(C(C)(C)C(N)=O)c4)cc2OCC3)n(C(C)C)n1 [Taselisib] (first compound max 1 µM, 7x7, partner max 10 µM)	0.139	0.0751	0.0657	0.153	0.0912	0.183	0.0452	0.13	0.0725	0.0478	0.0114	-0.0373	0.112	0.0236	0.114	0.157	0.0443	1	0.488	0.49
CC1(C)CCC(CN2CCN(c3ccc(C(=O)NS(=O)(=O)c4ccc(NCC5CCOCC5)c([N+](=O)[O-])c4)c(Oc4cnc5[nH]ccc5c4)c3)CC2)=C(c2ccc(Cl)cc2)C1 [Venetoclax] + C1CN(CCC1(C(=O)N[C@@H](CCO)C2=CC=C(C=C2)Cl)N)C3=NC=NC4=C3C=CN4 [Capivasertib] (first compound max 1 µM, 7x7, partner max 3 µM)	-0.0205	-0.0501	-0.0756	0.0354	-0.0572	0.0321	-0.0031	-0.0641	-0.0211	-0.0683	-0.0312	-0.0422	-0.0207	-0.0204	-0.0833	-0.0176	-0.0707	0.385	0.111	0.678
CC1(C)CCC(CN2CCN(c3ccc(C(=O)NS(=O)(=O)c4ccc(NCC5CCOCC5)c([N+](=O)[O-])c4)c(Oc4cnc5[nH]ccc5c4)c3)CC2)=C(c2ccc(Cl)cc2)C1 [Venetoclax] + C=CCn1c(=O)c2cnc(Nc3ccc(N4CCN(C)CC4)cc3)nc2n1-c1cccc(C(C)(C)O)n1 [AZD1775] (first compound max 1 µM, partner max 1 µM)	-0.0425	0.0815	-0.0136	0.0723	0.0465	0.101	0.123	-0.0416	-0.0783	0.0064	-0.0116	-0.0537	-0.0362	-0.0755	-0.009	-0.0071	-0.0142	0.75	0.394	0.992
CC1(C)CCC(CN2CCN(c3ccc(C(=O)NS(=O)(=O)c4ccc(NCC5CCOCC5)c([N+](=O)[O-])c4)c(Oc4cnc5[nH]ccc5c4)c3)CC2)=C(c2ccc(Cl)cc2)C1 [Venetoclax] + CCN(CCO)CCCOc1ccc2c(Nc3cc(CC(=O)Nc4cccc(F)c4)[nH]n3)ncnc2c1 [AZD2811] (first compound max 1 µM, 7x7, partner max 1 µM)	-0.0137	0.0005	-0.0756	0.055	-0.045	0.0606	0.0196	-0.0097	-0.0394	-0.0253	-0.0068	-0.0043	0.0225	-0.036	0.0098	0.0132	-0.0105	0.406	0.229	1
CC1(C)CCC(CN2CCN(c3ccc(C(=O)NS(=O)(=O)c4ccc(NCC5CCOCC5)c([N+](=O)[O-])c4)c(Oc4cnc5[nH]ccc5c4)c3)CC2)=C(c2ccc(Cl)cc2)C1 [Venetoclax] + CN(C)CCCOc1ccc(-c2ccc3ncc4c(c3c2)n(C2CCOCC2)c(=O)n4C)cn1 [AZD0156] (first compound max 1 µM, 7x7, partner max 1 µM)	-0.0419	-0.0717	-0.0404	0.0928	0.0128	0.007	0.0715	0.005	-0.0377	-0.0373	0.0087	-0.015	-0.0418	-0.0437	-0.0135	-0.0102	-0.004	0.169	0.192	0.458
CC1(C)CCC(CN2CCN(c3ccc(C(=O)NS(=O)(=O)c4ccc(NCC5CCOCC5)c([N+](=O)[O-])c4)c(Oc4cnc5[nH]ccc5c4)c3)CC2)=C(c2ccc(Cl)cc2)C1 [Venetoclax] + COc1cc(Nc2ncc3c(n2)-c2ccc(Cl)cc2C(c2c(F)cccc2OC)=NC3)ccc1C(=O)O [Alisertib] (first compound max 1 µM, 7x7, partner max 10 µM)	-0.0062	-0.0642	-0.0132	0.0148	0.0861	0.125	0.0303	-0.0188	-0.0501	-0.0125	-0.0415	-0.0525	-0.0544	-0.0296	0.0168	0.077	-0.0234	0.633	0.244	1
CC1(C)CCC(CN2CCN(c3ccc(C(=O)NS(=O)(=O)c4ccc(NCC5CCOCC5)c([N+](=O)[O-])c4)c(Oc4cnc5[nH]ccc5c4)c3)CC2)=C(c2ccc(Cl)cc2)C1 [Venetoclax] + C[C@@H]1COCCN1C2=NC(=NC(=C2)C3(CC3)[S@](=N)(=O)C)C4=C5C=CNC5=NC=C4 [AZD6738] (first compound max 1 µM, 7x7, partner max 10 µM)	-0.0395	-0.034	-0.0085	0.0201	0.0066	0.0142	0.0004	-0.0643	-0.0571	-0.0032	-0.0484	-0.0144	-0.021	-0.0138	-0.0102	-0.0024	-0.0092	0.75	0.461	1
CC1(C)CCC(CN2CCN(c3ccc(C(=O)NS(=O)(=O)c4ccc(NCC5CCOCC5)c([N+](=O)[O-])c4)c(Oc4cnc5[nH]ccc5c4)c3)CC2)=C(c2ccc(Cl)cc2)C1 [Venetoclax] + C[C@@H](Nc1cc(F)cc(F)c1)c1cc(C(=O)N(C)C)cc2c(=O)cc(N3CCOCC3)oc12 [AZD8186] (first compound max 1 µM, 7x7, partner max 3 µM)	-0.0397	0.0015	-0.0504	0.095	0.0357	0.0918	0.21	-0.0439	-0.0378	-0.0256	0.0135	0.0036	-0.0248	-0.0471	-0.0408	0.0157	-0.0538	0.455	0.171	0.794
CC1(C)CCC(CN2CCN(c3ccc(C(=O)NS(=O)(=O)c4ccc(NCC5CCOCC5)c([N+](=O)[O-])c4)c(Oc4cnc5[nH]ccc5c4)c3)CC2)=C(c2ccc(Cl)cc2)C1 [Venetoclax] + Cc1cc2ncnn2cc1Nc1ncc2c(n1)n(C1CCOCC1)c(=O)n2C [AZD7648] (first compound max 1 µM, 7x7, partner max 10 µM)	-0.0255	-0.0904	-0.0416	0.063	0.0008	0.0752	0.109	-0.0369	-0.0119	-0.0508	-0.0431	-0.0171	0.0161	0.0174	0.0034	-0.0016	-0.0235	0.273	0.192	0.569
CC1(C)CCC(CN2CCN(c3ccc(C(=O)NS(=O)(=O)c4ccc(NCC5CCOCC5)c([N+](=O)[O-])c4)c(Oc4cnc5[nH]ccc5c4)c3)CC2)=C(c2ccc(Cl)cc2)C1 [Venetoclax] + Cn1cnc2c(F)c(Nc3ccc(Br)cc3Cl)c(C(=O)NOCCO)cc21 [Selumetinib] (first compound max 1 µM, 7x7, partner max 3 µM)	-0.0494	-0.0415	-0.0542	0.241	-0.0273	0.0847	0.0788	-0.0276	-0.0764	-0.0531	-0.0396	0.0334	-0.0275	-0.0275	-0.0107	-0.024	-0.0487	0.186	0.175	0.303
